Assay results from patent US12077503B2, “Substituted cyclic amides and their use as herbicides” (FMC CORPORATION, priority 2015, dated 2024).

Legend:
[1] = test system: redroot pigweed (Amaranthus retroflexus); test: Test G Pre-Emergence Protocol; type: in vivo; conditions: evaluated after 13 days
Protocol: (§1) Seeds of corn (Zea mays), giant foxtail (Setaria faberi), barnyardgrass (Echinochloa crus-galli), ivy-leaved morning glory (Ipomoea hederacea), redroot pigweed (Amaranthus retroflexus) and velvetleaf (Abutilon theophrasti) were sown in standard soil in pots. After cultivation for one day under controlled conditions in a glasshouse (at 24/16° C., day/night; 14 hours light; 65% humidity), the plants were sprayed with an aqueous spray solution derived from the formulation of the technical active ingredient in acetone/water (50:50) solution containing 0.5% Tween 20 (polyoxyethylene sorbitan monolaurate, CAS RN 9005-64-5) to give a final dose of 15.625, 62.5 or 250 g/ha of test compound.
(§2) The test plants were then grown on under controlled conditions in a glasshouse (at 24/16° C., day/night; 14 hours light; 65% humidity) and watered twice daily. After 13 days the test was evaluated (100=total damage to plant; 0=no damage to plant). A dash (-) means no test result.

[2] = test system: velvetleaf (Abutilon theophrasti); test: Test G Pre-Emergence Protocol; type: in vivo; conditions: evaluated after 13 days
Protocol: as §1, §2

[3] = 62.5 g ai/ha, 100=total damage to plant, 0=no damage to plant

| Compound | Pigweed, Redroot damage rating (100=total damage to plant; 0=no damage to plant) ([1]; 15.625 g ai/ha) | Pigweed, Redroot damage rating (100=total damage to plant; 0=no damage to plant) ([1]; 250 g ai/ha) | pest or weed control at 62.5 g/ha ([1]; Amaranthus retroflexus, pre-emergence, 312 h, 62.5 g ai/ha, 100=total damage to plant, 0=no damage to plant, read-out: plant damage rating, Pigweed, Redroot) [%] | Velvetleaf damage rating (100=total damage to plant; 0=no damage to plant) ([2]; 15.625 g ai/ha) | Velvetleaf damage rating (100=total damage to plant; 0=no damage to plant) ([2]; 250 g ai/ha) | pest or weed control at 62.5 g/ha ([2]; Abutilon theophrasti, pre-emergence, 312 h, 62.5 g ai/ha, 100=total damage to plant, 0=no damage to plant, read-out: plant damage rating, Velvetleaf) [%] | plant damage rating, Pigweed, Redroot [1, 3] | plant damage rating, Velvetleaf [2, 3] |
| --- | --- | --- | --- | --- | --- | --- | --- | --- |
| CN1C[C@H](c2cccc(C(F)(F)F)c2)[C@@H](C(=O)Nc2cccnc2F)C1=O [Compound 1397] | 0 | 80 | 20 | 0 | 70 | 10 | – | – |
| CN1C[C@H](c2ccc(C(F)(F)F)cc2)[C@@H](C(=O)Nc2cccc(F)n2)C1=O [Compound 1400] | 20 | 90 | – | 10 | 60 | – | 80 | 10 |
